# Measured values from patent US20130116284A1, “LIPOIC ACID AND NITROXIDE DERIVATIVES AND USES THEREOF” (RADIKAL THERAPEUTICS INC., priority 2010, published 2013).
# “And” between values parts separate entries of the source, which are not always exact repeats. Identical values can stand only once.
# Assays:
# RAW cells = assay: cytoprotection of RAW cells exposed to H2O2 (viability); conditions: 0.1 μM, same model system (not shown)
# PARP-1 = PARP-1 (Homo sapiens, UniProt P09874); assay: in vitro PARP inhibition potency assay, Universal calorimetric PARP-1 Assay Kit (Trevigen); assay type: biochemical; conditions: 10 point curve, 0.16 nM to 250 nM
# Chain of PARP-1 (P09874 whole entry): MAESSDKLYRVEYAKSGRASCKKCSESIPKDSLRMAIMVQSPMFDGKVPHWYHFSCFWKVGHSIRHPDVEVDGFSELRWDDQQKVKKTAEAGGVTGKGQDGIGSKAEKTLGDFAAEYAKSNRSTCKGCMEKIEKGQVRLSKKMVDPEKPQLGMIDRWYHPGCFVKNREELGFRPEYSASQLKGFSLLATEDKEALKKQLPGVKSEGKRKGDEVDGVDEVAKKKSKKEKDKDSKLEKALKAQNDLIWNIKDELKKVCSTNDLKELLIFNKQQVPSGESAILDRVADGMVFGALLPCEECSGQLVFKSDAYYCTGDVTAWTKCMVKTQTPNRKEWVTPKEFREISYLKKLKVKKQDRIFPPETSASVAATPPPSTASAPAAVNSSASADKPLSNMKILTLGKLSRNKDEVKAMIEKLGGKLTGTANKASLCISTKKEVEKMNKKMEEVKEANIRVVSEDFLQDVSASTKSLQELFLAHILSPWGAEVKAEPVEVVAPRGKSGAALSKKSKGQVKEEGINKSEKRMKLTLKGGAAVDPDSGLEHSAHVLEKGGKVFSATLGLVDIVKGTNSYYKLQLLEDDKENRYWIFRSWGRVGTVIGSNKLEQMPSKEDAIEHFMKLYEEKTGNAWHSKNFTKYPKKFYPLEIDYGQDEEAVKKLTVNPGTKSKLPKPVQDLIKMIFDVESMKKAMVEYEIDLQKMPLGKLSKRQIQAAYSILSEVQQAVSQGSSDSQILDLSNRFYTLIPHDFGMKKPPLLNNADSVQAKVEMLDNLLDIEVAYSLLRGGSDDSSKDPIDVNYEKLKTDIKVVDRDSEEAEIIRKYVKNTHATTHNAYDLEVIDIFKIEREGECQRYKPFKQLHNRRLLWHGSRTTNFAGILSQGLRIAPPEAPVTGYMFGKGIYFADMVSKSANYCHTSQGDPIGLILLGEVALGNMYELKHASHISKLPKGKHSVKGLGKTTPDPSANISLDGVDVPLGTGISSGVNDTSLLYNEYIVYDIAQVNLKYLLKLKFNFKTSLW
# Protocol: In this experiment, the PARP inhibition activity of compound 1 (R-503) was evaluated in in vitro potency assay using Universal calorimetric PARP-1 Assay Kit (Trevigen, Gaithersburg, Md.).
# CD mice = assay: rodent model of inflammation induced by zymosan (lung MPO, lung histology); assay type: in vivo; conditions: 60 mg/kg IP at 1 hour after zymosan 500 mg/kg IP; lung at 18 hours; vs. vehicle control
# Protocol: In this study, we tested the potency of compound 1 (R-503) in treatment of an inflammation induced by zymosan, a glucan with repeating glucose units connected by β-1,3-glycosidic linkages.
# Male CD mice (20-22 g) were randomly allocated into the following groups (n=10 per experimental arm): (i) zymosan+vehicle group, wherein zymosan (500 mg/kg) was administered via an intraperitoneal (IP) route; (ii) zymosan+compound 1 group, which was identical to the zymosan+vehicle group except for the administration of compound 1 (60 mg/kg IP) at 1 hour after zymosan challenge; and (iii) Sham+vehicle group, which was identical to the zymosan+vehicle group but vehicle was administered in place of zymosan. 18 hours after zymosan admininstration, lung samples were scored for histologic injury by a pathologist blinded to group assignment and neutrophil concentration was determined by measurement of myeloperoxidase (MPO) activity. The following morphological criteria were used for scoring: 0, normal lung; grade 1, minimal edema or infiltration of alveolar or bronchiolar walls; grade 3, moderate edema and inflammatory cell infiltration without obvious damage to lung architecture; grade 4, severe inflammatory cell infiltration with obvious damage to lung architecture. […]
# Balb/c mice = assay: murine model of chlorine inhalational lung injury (lung MPO, lung histology); assay type: in vivo; conditions: 30 mg/kg/dose IP q12h from 15 minutes after 400 ppm Cl2 for 30 minutes; lung at 24 hours; relative to placebo (D5W)
# Protocol: In this study, we potency of compound 1 (R-503) in treatment of chlorine inhalational lung injury was tested.
# Male Balb/c mice were exposed in a cylindrical glass chamber to 400 ppm Cl2 in air for 30 minutes. 15 minutes after the conclusion of Cl2 exposure, mice were initiated on a q12h regimen of compound 1 (30 mg/kg/dose IP in 0.5 ml dextrose 5% in water, D5W). At 24 hours, mice were euthanized and lung tissue was taken for examination of polymorphonuclear neutrophil (PMN) infiltration (as reflected by MPO) and lung histology (H&E staining). The following morphological criteria were used for scoring: 0, normal lung; grade 1, minimal edema or infiltration of alveolar or bronchiolar walls; grade 3, moderate edema and inflammatory cell infiltration without obvious damage to lung architecture; grade 4, severe inflammatory cell infiltration with obvious damage to lung architecture. As shown in FIGS. 4A-4B, compound 1 therapy reduced the elevation in MPO and histological lung damage by 82% and 73%, respectively, relative to placebo (D5W).
# PARP = conditions: read-out: PARP inhibitor IC50; stated for the monofunctional PARP inhibitor, no method given; cited from earlier work
smiles,measurement,setting,value
O=C(O)CCCC[C@@H]1CCSS1 (racemic) [lipoic acid],cytoprotective effect in RAW cells exposed to H2O2,RAW cells,no beneficial effect
"NC(=O)c1cccc2[nH]c(CCCCC3CCSS3)nc12 (stereo not shown) [compound 1, 2-(4-(1,2-dithiolan-3-yl)butyl)-1H-benzo[d]imidazole-4-carboxamide]",IC50,PARP-1,26.2 nM and 26 nM
same,reduction of elevation in lung MPO activity,CD mice,65%
same,reduction of lung histologic injury,CD mice,80%
same,reduction of elevation in lung MPO,Balb/c mice,82%
same,reduction of histological lung damage,Balb/c mice,73%
C[C@]1(c2nc3c(C(N)=O)cccc3[nH]2)CCCN1 [ABT-888],IC50,PARP,< 5 nM
